Measurements reported in US10590109B2, “Heterocyclic compounds used as FGFR inhibitors” (Nanjing InnoCare Pharma Tech Co., Ltd., priority 2016, dated 2020).

Columns and labels:
[1] = molecular target: human recombinant FGFR4 catalytic structural domain protein (Homo sapiens (Human), UniProt P22455); test: FGFR4 activity inhibition test (HTRF kinase assay); format: biochemical; conditions: 90 μM ATP
Protocol: FGFR4 Activity Inhibition Test
The influence of the compound according to the present invention on the activity of fibroblast growth factor receptor 4 (FGFR4) was evaluated by an in vitro kinase assay experiment.
(§1) The experimental method is summarized as follows:
The in vitro activity of FGFR4 was determined by assaying the phosphorylation level of the substrate in the kinase reaction, by means of an HTRF kinase assay kit.
(§2) If the IC50 value of the compound was very low, the initial concentration of the compound could be reduced.
(§3) After 60 min, the enzyme reaction was terminated by EDTA in the assay solution, and the phosphorylated products were identified by both the Eu^3+ labeled cage-shaped antibody (donor) and the streptavidin labeled XL665 antibody (receptor) at the same time. […] The inhibition percentage of the compound against FGFR4 activity could be calculated with the following formula: Inhibition percentage=100−100*(signalcompound−signalnegative control)/(signalpositive control−signalnegative control)
The IC50 value of the compound was calculated by the following formula, from 10 concentration points, with XLfit (ID Business Solutions Ltd., UK): Y=Bottom+(Top−Bottom)/(1+10^((Log IC50−X)*slope factor)) Where, Y is the inhibition percentage, Bottom is the bottom plateau of the curve (the bottom plateau of the S-type curve), Top is the top plateau of the curve (the top plateau of the S-type curve), and X is the log value of the compound concentration to be measured.

Hep3B cells = test: Hep3B cell proliferation inhibition test (CellTiter-Glo); format: cell-based; conditions: Homo sapiens, 72 h, CTG
Protocol: Hep3B Cell Proliferation Inhibition Test
The influence of the compound according to the present invention on Hep3B cell proliferation was evaluated by a luminescence cell viability test.
as §1
A CellTilter-Glo (CTG) assay kit was used to detect an indicator ATP of active cellular metabolism by means of a unique stable luciferase, and the luminous signal produced in the test was in direct proportion to the count of active cells in the medium, thereby to detect the cell proliferation of Hep3B.
A CellTilter-Glo agent (Promega, G7572) was comprised of a CellTilter-Glo lyophilized powder and a CellTilter-Glo buffer, and the lyophilized powder was dissolved into the buffer in use.
Hep3B cells (ATCC, HB-8064) (cell source: Shanghai Academy of Life Sciences, Chinese Academy of Sciences) were cultured in a DMEM complete medium (Thermofisher, 11995073) containing a 10% FBS (GBICO, 10099-141) and 100 units/ml mycillin mixed solution (Thermofisher, 15140122). When the cells coverage reached 80-90% in the culture vessel, after the cells were digested and blown about with 0.25% pancreatin (containing EDTA) (Thermofisher, 25200056), they were planted in a white 384 well plate (Thermofisher, 164610), with 1000 cells in each well (27 μl of a DMEM complete medium), and then the 384 well plate was placed into an incubator at 37° C. and 5% CO2 and cultured overnight (18-20 h). The compound was dissolved and diluted in 100% DMSO to 100 μM, then 4-fold-series diluted with DMSO to a minimum concentration of 0.0061 μM, and each concentration point was 50-fold diluted with the FBS-free DMEM medium. If the IC50 value of the compound was very low, the initial concentration of the compound could be reduced. […] This 384 well plate was placed into an incubator at 37° C. and 5% CO2 for further culture, taken out after 72 h, and stood at room temperature for 30 min. The CTG agent was also taken out and balanced to room temperature. 15 μl of the CTG agent was added into each well, and placed onto a shaker to be gently shaken for 3 min to ensure sufficient cell lysis. After 10 min of standing to allow the luminescence signal to be stable, the luminescence signal was read with EnVision (Perkin Elmer).
The inhibition percentage of the compound against Hep3B cell proliferation could be calculated with the following formula: Inhibition percentage=100−100*(signalcompound−signalnegative control)/(signalpositive control−signalnegative control)
The IC50 value of the compound was calculated by the following formula, from 8 concentration points, with XLfit (ID Business Solutions Ltd., UK): Y=Bottom+(Top−Bottom)/(1+10^((Log IC50−X)*slope factor))
(§4) Where, Y is the inhibition percentage, Bottom is the bottom plateau of the curve (the bottom plateau of the S-type curve), Top is the top plateau of the curve (the top plateau of the S-type curve), and X is the log value of the compound concentration to be measured.

[2] = molecular target: human recombinant FGFR1 catalytic structural domain protein (Homo sapiens (Human), UniProt P11362); test: FGFR1 activity inhibition test (HTRF kinase assay); format: biochemical; conditions: 40 μM ATP
Protocol: FGFR1 Activity Inhibition Test
The influence of the compound according to the present invention on the activity of fibroblast growth factor receptor 1 (FGFR1) was evaluated by an in vitro kinase assay experiment.
as §1
The in vitro activity of FGFR1 was determined by assaying the phosphorylation level of the substrate in the kinase reaction, by means of an HTRF kinase assay kit.
as §2
as §3, with “FGFR1” for “FGFR4”
The IC50 value of the compound was calculated by the following formula, from 10 concentration points, with XLfit (ID Business Solutions Ltd., UK): Y=Bottom+(Top−Bottom)/(1+10^((Log IC50−X)*slope factor))
as §4

Chain of human recombinant FGFR1 catalytic structural domain protein (P11362 other isoform, or with tags, fused parts or gaps): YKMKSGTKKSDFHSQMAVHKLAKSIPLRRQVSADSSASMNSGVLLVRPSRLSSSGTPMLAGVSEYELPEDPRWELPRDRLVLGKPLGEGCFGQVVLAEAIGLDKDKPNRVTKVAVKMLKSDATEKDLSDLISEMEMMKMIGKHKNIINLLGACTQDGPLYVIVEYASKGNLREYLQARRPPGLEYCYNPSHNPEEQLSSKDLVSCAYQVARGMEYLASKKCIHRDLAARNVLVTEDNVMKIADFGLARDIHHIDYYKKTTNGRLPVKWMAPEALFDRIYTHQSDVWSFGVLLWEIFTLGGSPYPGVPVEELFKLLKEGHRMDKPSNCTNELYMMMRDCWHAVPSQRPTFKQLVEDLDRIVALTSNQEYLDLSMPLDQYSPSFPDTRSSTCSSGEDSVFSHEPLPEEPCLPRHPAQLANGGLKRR
Chain of human recombinant FGFR4 catalytic structural domain protein (P22455 460-802): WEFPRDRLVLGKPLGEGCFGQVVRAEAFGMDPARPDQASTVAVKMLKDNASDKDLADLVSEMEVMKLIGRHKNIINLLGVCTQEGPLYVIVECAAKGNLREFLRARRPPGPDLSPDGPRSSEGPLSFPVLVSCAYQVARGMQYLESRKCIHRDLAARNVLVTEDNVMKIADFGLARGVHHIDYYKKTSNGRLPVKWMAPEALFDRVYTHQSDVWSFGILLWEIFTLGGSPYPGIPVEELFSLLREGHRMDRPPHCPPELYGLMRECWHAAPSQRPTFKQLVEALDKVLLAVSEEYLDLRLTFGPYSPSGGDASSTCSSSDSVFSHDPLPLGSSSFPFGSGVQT

## COC[C@@H](C)Oc1cc(NC(=O)N(C)c2ccc(CN3CCOCC3=O)c(C=O)n2)ncc1C#N [Compound 14, (R)-3-(5-cyano-4-((1-methoxyprop-2-yl)oxo)pyrid-2-yl)-1-(6-formyl-5-((3-carbonylmorpholino)methyl)pyrid-2-yl)-1-methylurea]
[1]
  IC50: < 10 nM
Hep3B cells
  IC50: < 50 nM
[2]
  IC50: > 1000 nM
